Experimental data published in patent US9561239B2, “Compositions and methods for inhibiting norovirus infection” (Children's Hospital Medical Center, priority 2013, dated 2017).
Read-outs that look alike come from different tables or passages of the source.

Key:
[1] = molecular target: P dimers of VA387 (GII.4) binding to saliva HBGAs (Norovirus GII.4 (Human calicivirus NLV/VA98387/1998), UniProt Q913Z3); assay: Saliva-based NoV/HBGA blocking assay; design: species or system Norovirus VA387 (GII.4)
Chain of P dimers of VA387 (GII.4) binding to saliva HBGAs (Q913Z3 214-539): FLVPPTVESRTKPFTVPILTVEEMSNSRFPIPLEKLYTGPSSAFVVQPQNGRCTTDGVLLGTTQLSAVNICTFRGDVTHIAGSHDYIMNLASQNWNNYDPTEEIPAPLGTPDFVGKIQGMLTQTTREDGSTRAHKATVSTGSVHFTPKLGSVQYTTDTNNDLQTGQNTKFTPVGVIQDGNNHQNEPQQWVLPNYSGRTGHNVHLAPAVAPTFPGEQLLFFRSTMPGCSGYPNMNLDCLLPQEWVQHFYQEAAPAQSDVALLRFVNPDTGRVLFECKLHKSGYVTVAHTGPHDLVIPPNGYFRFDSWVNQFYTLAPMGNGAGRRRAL
Method: (§1) Saliva-based NoV-HBGA binding assays were performed as described previously using P dimers of VA387 (GII.4) as NoV surrogates and saliva samples and/or synthetic oligosaccharides as HBGA sources. Briefly, synthetic oligosaccharides and/or boiled saliva samples with defined HBGAs phenotype were coated on 96-well microtiter plates, after blocking with nonfat milk, P dimer of VA387 were added. The bound P dimer was detected using a guinea pig antiserum against NoVs VLPs, followed by the addition of horseradish peroxidase (HRP)-conjugated goat anti-guinea pig IgG. The bound HRP conjugates were colorized by the TMB kit (Kirkegaard & Perry Laboratories), which was read an EIA spectrum reader (Tecan). The synthetic oligosaccharide-PAA conjugates (2 μg/ml, GlycoTech Corporation, Rockville, Md.) were captured to a microtiter plate through coated streptavidin (5 μg/ml).
(§2) Blocking effects of the hit compounds were measured by a pre-incubation of the P dimers with the compounds at given concentrations for 30 min before the P dimers were added to the coated saliva samples or HBGA oligosaccharides in a binding assay. The blocking activity of a compound was defined as its concentration yielding 50% inhibition (IC50) in the binding assay. IC50 calculation was performed using Probit regression analysis and correlation analysis between IC50 and Ki values was performed with nonparametric Spearman's r (two-tailed) by using SPSS statistical software version 13.0 (SPSS, Chicago, Ill.).

[2] = molecular target: VA387 P dimer binding to the synthetic A and B oligosaccharides (Norovirus GII.4 (Human calicivirus NLV/VA98387/1998), UniProt Q913Z3); assay: Synthetic HBGA oligosaccharide-PAA conjugate blocking assay; design: species or system Norovirus VA387 (GII.4)
Chain of VA387 P dimer binding to the synthetic A and B oligosaccharides (Q913Z3 214-539): as above
Method: as §1, §2

[3] = MTS cytotoxicity assay; format: cell-based, human; rhesus monkey; details: HeLa and LLC-MK2 cells, 3 days incubation; cell line per value not stated
Method: This assay was performed using CellTiter 96 aqueous nonradioactive cell proliferation kits (Promega, Madison, Wis.) as described elsewhere. Briefly, HeLa and LLC-MK2 cells were seeded at 5×10^4 cells/ml onto a 96-well plate overnight. After an incubation with each compound at various concentrations for 3 days (the compound was added one time at the beginning of the incubation), the culture medium was replaced with fresh one with 100 μl of MTS-phenazine methosulfate/well. After a further incubation at 37° C. for 2 h, the color products of MTS were measured with a plate reader at 490 nm. The cytotoxicities of individual compounds were indicated by the decrease in cellular reduction of MTS into the colored product. The 50% cytotoxic concentrations (CC50) were determined as the concentrations of the compounds that caused 50% inhibition of cell growth compared with that of control cells without a compound.

[4] = blocking assay, type A saliva as HBGA source, mean ± standard deviation, read-out: IC50 Saliva A
[5] = blocking assay, type B saliva as HBGA source, mean ± standard deviation, read-out: IC50 Saliva B
[6] = Activity (IC50), blocking the binding of NoV P dimer to HBGAs, given as range or bound
[7] = IC50 Saliva A, blocking assay, type A saliva as HBGA source, mean ± standard deviation
[8] = IC50 Saliva B, blocking assay, type B saliva as HBGA source, mean ± standard deviation

| Compound | IC50 [1, 4] [µM] | IC50 [1, 5] [µM] | IC50 [2] [µM] | IC50 [1, 6] [µM] | IC50 [1, 7] [µM] | IC50 [1, 8] [µM] | CC50 at 3 days [3] [µM] |
| --- | --- | --- | --- | --- | --- | --- | --- |
| C/C(=N/O)C1=CCC2C3CC[C@H]4C/C(=N\O)CC[C@]4(C)C3CC[C@]12C (stereo partly drawn) [Compound 1] | 2.38 ± 0.15 | 2.54 ± 0.21 | < 10 |  |  |  |  |
| CC(=O)C1CCC2C3CC[C@H]4CC(O)CCC4(C)C3CCC12C (stereo partly drawn) [Compound 2] |  |  | < 10 | 1 to 10 | 2.9 ± 0.33 | 2.93 ± 0.18 | 267 |
| C[C@]12CC[C@H](O)C[C@@H]1CC[C@@H]1[C@@H]2CC[C@@]2(C)[C@H]1CC[C@]2(C)O [Compound 3] |  | 3.39 ± 0.24 | < 10 |  |  |  |  |
| CC(CCC(=O)O)C1CCC2C3CC=C4CC(O)CCC4(C)C3CCC12C (stereo not drawn) [Compound 4] |  | 7.65 ± 0.33 | < 10 |  |  |  |  |
| C[C@]12CCC3C(CC[C@H]4CC=CC[C@]34C)C1CC/C2=N/NC(N)=S (stereo partly drawn) [Compound 5] | 8.7 ± 1.03 | 8.97 ± 0.63 | < 10 |  |  |  |  |
| Nc1ccc2c(c1)C1C=CCC1C(c1ccc([N+](=O)[O-])cc1)N2 (stereo not drawn) [Compound 6] | 12.6 ± 0.87 | 12.8 ± 0.64 |  | 10 to 20 |  |  |  |
| O=[N+]([O-])c1ccc2c(c1)C1C=CCC1C(C1CC=CCC1)N2 (stereo not drawn) [Compound 7] |  | 13.1 ± 0.87 |  | 10 to 20 |  |  |  |
| CC1(C)CC(=O)C2=C(C1)c1c(ccc3ccccc13)NC2 [Compound 8] | 14.1 ± 0.53 | 14.9 ± 0.71 |  | 10 to 20 |  |  |  |
| CC1CCc2c(sc3ncn(C(C)C(=O)N/N=C/c4c(O)ccc5ccccc45)c(=O)c23)C1 (stereo not drawn) [Compound 9] | 17 ± 1.06 | 16.8 ± 0.87 |  |  |  |  |  |
| C[C@]12CC[C@H]3[C@@H](CCC4=C/C(=N/OCC(=O)NCC(=O)O)CC[C@@]43C)[C@@H]1CC[C@H]2O [Compound 10] |  |  |  | 10 to 20 | 18.7 ± 0.35 | 18.6 ± 0.62 |  |
| C[C@]12CC[C@H](O)C=C1CC[C@@H]1C2CC[C@@]2(C)C1CC[C@@]21CCC(=O)O1 (stereo partly drawn) [Compound 11] |  |  |  | 20 to 40 | 22.7 ± 1.36 | 23.7 ± 1.28 |  |
| CNc1cc([N+](=O)[O-])cc2c1NC(c1ccccn1)C1CC=CC21 (stereo not drawn) [Compound 12] |  |  |  | 20 to 40 |  |  |  |
| O=C1CC(c2ccc([N+](=O)[O-])cc2)c2ccc3ccccc3c2N1 (stereo not drawn) [Compound 13] | 24.5 ± 0.98 | 26.3 ± 1.24 |  | 20 to 40 |  |  |  |
| CC(=O)C1=CCC2[C@@H]3CC=C4C[C@H](O)CC[C@]4(C)C3CC[C@]12C (stereo partly drawn) [Compound 14] |  |  |  | 20 to 40 | 24.8 ± 2.02 | 25.1 ± 1.32 |  |
| C[C@]12CC[C@H](O)C=C1CC[C@@H]1C2CC[C@@]2(C)C1CC[C@@]21CCC(=O)O1 (stereo partly drawn) [Compound 15] |  |  |  |  | 28.5 ± 1.54 | 29.4 ± 1.24 |  |
| CC(=O)OCC(=O)C1CCC2C3CC=C4CC(O)CCC4(C)C3CCC12C (stereo not drawn) [Compound 16] | 30.9 ± 1.04 | 30.1 ± 1.35 |  | 20 to 40 |  |  |  |
| Cc1ccc(C2CC(=O)Nc3c2ccc2ccccc32)cc1[N+](=O)[O-] (stereo not drawn) [Compound 17] |  | 33.7 ± 1.27 |  | 20 to 40 |  |  |  |
| Cc1noc2c1C1(C)CCC3C(CC=C4CC(O)CCC43C)C1C2 (stereo not drawn) [Compound 18] | 33.9 ± 1.67 | 34.5 ± 1.93 |  | 20 to 40 |  |  |  |
| CC12CCC3C(CCC4CC(=O)CCC43C)C1CCC2O (stereo not drawn) [Compound 19] | 36.9 ± 1.47 | 35.7 ± 1.06 |  | 20 to 40 |  |  |  |
| O=C(O)c1ccc(C2Nc3c(F)cccc3C3C=CCC32)cc1 (stereo not drawn) [Compound 20] | 38 ± 2.01 | 39.4 ± 1.53 |  | 20 to 40 |  |  |  |
